Consider 14 compounds from PubChem BioAssay (NCI).

Each structure is given as a SMILES string.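 All cell lines were grown in 96-well plates and treated with compound for 48 hours. TGI is the concentration that stops growth completely.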

Some test systems named below: K-562 leukemia; SW-620 colon; SNB-19 CNS; RPMI-8226 leukemia; HS 578T breast; RXF 393 renal; HCT-15 colon; UACC-62 melanoma; CCRF-CEM leukemia; TK-10 renal.
Common to all, as to test: NCI-60 cell line screen, 48 h

As for `O=C(CSc1nc2ccc(I)cc2c(=O)n1Cc1ccccc1)Nc1ccccc1`, the TGI in the test on K-562 leukemia is over 100 µM; in the test with SW-620 colon, over 100 µM; in the test on SNB-19 CNS, 62.7 µM; in the test on RPMI-8226 leukemia, over 100 µM; in the test with HS 578T breast, 17 µM; with RXF 393 renal, 34.1 µM. Besides, the TGI in the test with HCT-15 colon, in the test with UACC-62 melanoma and with CCRF-CEM leukemia was over 100 µM in each case.
Regarding `N#CCCN(CCCCN(CCC#N)C(=O)Nc1ccccc1)C(=O)Nc1ccccc1`, the TGI in the test on K-562 leukemia, in the test on SW-620 colon, with SNB-19 CNS, in the test on RPMI-8226 leukemia, with HS 578T breast and with RXF 393 renal was over 100 µM each time. In addition, the TGI with HCT-15 colon and in the test on UACC-62 melanoma was over 100 µM each time.
As for `CCOc1ccccc1N=NC1C(=O)N(C(=O)CC(=O)Nc2ccccc2C)N=C1C` (configuration not stated), the TGI in the test on TK-10 renal is over 100 µM; in the test with SW-620 colon it was over 100 µM; with RPMI-8226 leukemia, over 100 µM; with HS 578T breast, 31.5 µM; in the test with RXF 393 renal, 89.4 µM; in the test with HCT-15 colon, over 100 µM. In addition, the TGI in the test with UACC-62 melanoma and in the test on CCRF-CEM leukemia was over 100 µM in each case.
For the compound `Cc1cn(C2CC(O)C(Cn3nncc3Cn3nc(Br)c(=O)[nH]c3=O)O2)c(=O)[nH]c1=O` (configuration not stated), the TGI in the test on TK-10 renal, in the test on SW-620 colon, with SNB-19 CNS, in the test on RPMI-8226 leukemia, in the test with HS 578T breast and in the test with RXF 393 renal was over 100 µM in each case. Further, the TGI in the test on HCT-15 colon, in the test with UACC-62 melanoma and in the test on CCRF-CEM leukemia was over 100 µM throughout.
Take `COc1ccc(NC(=O)CSC(=O)c2ccccc2)c(SCCSSCCSc2cc(OC)ccc2NC(=O)CSC(=O)c2ccccc2)c1`: the TGI with TK-10 renal, with SW-620 colon, in the test on SNB-19 CNS, in the test on RPMI-8226 leukemia, in the test with HS 578T breast and with RXF 393 renal was over 100 µM in each case. Besides, the TGI with HCT-15 colon, in the test on UACC-62 melanoma and in the test with CCRF-CEM leukemia was over 100 µM each time.
On to `OCc1ccc2c(c1)CC1(Cc3ccccc3C1)C2`, for which the TGI with TK-10 renal turned out to be 61.5 µM; with K-562 leukemia it was 38.1 µM; with SW-620 colon it was 39 µM; in the test with RPMI-8226 leukemia, 46.4 µM; in the test with HS 578T breast, 32.9 µM; with RXF 393 renal, 36.2 µM. For the same compound, the figures for the TGI in the test with HCT-15 colon, in the test with UACC-62 melanoma and in the test on CCRF-CEM leukemia were over 100 µM, 60.2 µM and 54.4 µM, respectively.
In the case of `O=C(CC(=O)N1N=C(c2ccccc2)C(N=Nc2ccc(S(=O)(=O)CCOS(=O)(=O)O)cc2)C1=O)Nc1ccc(Cl)cc1` (configuration not stated), the TGI with TK-10 renal is over 100 µM; with K-562 leukemia it was over 100 µM; in the test on SNB-19 CNS, over 100 µM; in the test on RPMI-8226 leukemia, over 100 µM; in the test with HS 578T breast, 99.6 µM; in the test with RXF 393 renal, over 100 µM. The TGI in the test on HCT-15 colon, in the test on UACC-62 melanoma and with CCRF-CEM leukemia was over 100 µM in each case.
For the compound `COC1C(O)C(C)OC(O[C@H]2CC[C@@]3(C)C(CC[C@@H]4[C@@H]3CC[C@]3(C)[C@@H](C(C)OC5OC(CO)C(O)C(O)C5O)CC[C@]43O)C2)C1O` (some centres not stated), the TGI with TK-10 renal, with K-562 leukemia, in the test on SW-620 colon, in the test on SNB-19 CNS, with RPMI-8226 leukemia and in the test on HS 578T breast was over 25 µM each time. Besides, the TGI in the test with HCT-15 colon, in the test with UACC-62 melanoma and in the test on CCRF-CEM leukemia was over 25 µM throughout.
Turning to `O=c1oc2ccccc2c(O)c1C(c1ccc(OCc2ccccc2)cc1)c1c(O)c2ccccc2oc1=O`, the TGI in the test with TK-10 renal, in the test with SW-620 colon, with SNB-19 CNS, in the test with RPMI-8226 leukemia, with HS 578T breast and with RXF 393 renal was over 100 µM throughout. The TGI in the test with HCT-15 colon, in the test on UACC-62 melanoma and in the test with CCRF-CEM leukemia was over 100 µM throughout.
In the case of `CC(C)(C)OC(=O)N1C(=O)C2CCCC21` (configuration not stated), the TGI in the test with SW-620 colon, with SNB-19 CNS, with RPMI-8226 leukemia, with HS 578T breast, in the test on RXF 393 renal and with HCT-15 colon was over 100 µM each time. In addition, the TGI in the test on UACC-62 melanoma and in the test on CCRF-CEM leukemia was over 100 µM throughout.
`Cc1ccc(/C=c2\c(=O)[nH]c3nc4ccccc4c(=O)n23)cc1`: the TGI in the test on TK-10 renal is over 100 µM; with SW-620 colon, 48.8 µM; in the test on SNB-19 CNS, over 100 µM; with RPMI-8226 leukemia, over 100 µM; with HS 578T breast, over 100 µM; in the test with RXF 393 renal it was 98.7 µM. Besides, the TGI in the test on HCT-15 colon, with UACC-62 melanoma and in the test with CCRF-CEM leukemia was over 100 µM each time.
Turning to `CCOC(=O)c1nc2ccccc2nc1Nc1ccc(C(=O)OC)s1`, the TGI in the test with TK-10 renal, with SW-620 colon, with SNB-19 CNS, with RPMI-8226 leukemia, in the test with HS 578T breast and in the test on HCT-15 colon was over 100 µM each time. In addition, the TGI in the test with UACC-62 melanoma and with CCRF-CEM leukemia was over 100 µM throughout.
Regarding `CCOP(=O)(OCC)C(Nc1ccc(Cl)cc1)c1ccc(F)cc1` (configuration not stated), the TGI with TK-10 renal is over 100 µM; in the test with K-562 leukemia, 68.5 µM; in the test on SNB-19 CNS it was over 100 µM; in the test with RPMI-8226 leukemia it was 67.6 µM; with HS 578T breast, 54.4 µM; in the test with RXF 393 renal, 67.3 µM. For the same compound, the TGI in the test on HCT-15 colon was over 100 µM; in the test with UACC-62 melanoma, 29.3 µM; in the test on CCRF-CEM leukemia, 93.1 µM.
For the compound `COC(=O)/C=C1\C(CO[Si](C)(C)C(C)(C)C)OC(n2cc(C)c(=O)n(C)c2=O)C1O[Si](C)(C)C(C)(C)C` (configuration not stated), the TGI in the test on TK-10 renal, with K-562 leukemia, with SW-620 colon, in the test on SNB-19 CNS, in the test on RPMI-8226 leukemia and in the test on HS 578T breast was over 100 µM throughout. Also, the TGI in the test with HCT-15 colon, in the test on UACC-62 melanoma and with CCRF-CEM leukemia was over 100 µM throughout.
